Source: publication PMC8011931, “Identification, Structure–Activity Relationship, and Biological Characterization of 2,3,4,5-Tetrahydro-1H-pyrido[4,3-b]indoles as a Novel Class of CFTR Potentiators” (Journal of Medicinal Chemistry, 2020)

Key:
HepG2 cells = experiment: HepG2 cell toxicity assay (CTG and MTT); assay type: cell-based; conditions: at 20 μM, 24 h, CTG and MTT assays; percent of vehicle-treated controls
Method: In order to assess a possible liver toxicity liability, the selected analogues were also tested in HepG2 cells at two concentrations (2.0 and 20 μM) for 24 h, along with a reference compound (rotenone). A reduction of cell viability to less than 80% was set as the threshold for estimation of cytotoxicity.[42]
To increase the detection of drug-induced mitochondrial effects in a preclinical cell-based assay, HepG2 hepatocellular carcinoma cells (ATCC HB-8065) were forced to rely on mitochondrial oxidative phosphorylation rather than glycolysis by substituting galactose (10 mM) for glucose (25 mM) in the growth media (DMEM, Life Technologies).
High-glucose media: high-glucose DMEM (Invitrogen 11995-065) containing 25 mM glucose, 1.0 mM sodium pyruvate, supplemented with 5 mM N-(2-hydroxyethyl)piperazine-N′-(2-ethanesulfonic acid) (HEPES), and 10% FBS. Galactose media: DMEM deprived of glucose (Invitrogen 11966-025), supplemented with 10 mM galactose, 2.0 mM glutamine (6 mM final), 5.0 mM HEPES, 10% FBS, and 1.0 mM sodium pyruvate.
For the cytotoxicity assay, cells were plated at 20,000 cells/well in 100 μL of cell culture media in 96-well plates and allowed to grow overnight. The cells were treated for 24 h with 2.0 or 20 μM of each compound. All compounds were dissolved in DMSO with a stock concentration of 4 mM. The first dilution step of compounds was prepared in DMSO (200× stock solutions), while the second dilution step was carried out in a complete cell culture medium (5% DMSO). Of this dilution, 10 μL were added to the wells of the 96-well plate, with a final DMSO concentration of 0.5%. Rotenone, a well-known mitochondrial inhibitor, was used as a reference compound. After treatment, cellular viability was assessed by using two different assays, run on independent plates: the CellTiter-Glo (CTG) Luminescent Cell Viability Assay (Promega), which determines the number of viable cells based on the quantitation of the ATP present, and the thiazolyl blue tetrazolium […] (MTT) dye (Aldrich), which is converted to water-insoluble MTT formazan crystals by mitochondrial dehydrogenases of living cells. Each experimental condition (i.e., control, reference, and compounds’ doses) has been tested in three technical replicates.

F508del-CFTR = F508del-CFTR (Homo sapiens, UniProt P13569, DEL508-508); experiment: HS-YFP-based assay for CFTR activity on F508del-CFTR FRT cells rescued at 32 °C for 24 h; assay type: cell-based; design: expressed in transfected cells; key to Emax: fold increase in F508del-CFTR rescue relative to hit 3 (normalized); conditions: for EC50: F508del-CFTR FRT cells rescued at 32 °C for 24 h, plus forskolin; for Emax: supplementary csv, same data as Tables 1–3
Method in brief: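 FRT cells co-expressing F508del-CFTR and HS-YFP (H148Q/I152L) were rescued 24 h at 32 °C, then exposed to compound plus forskolin (10 or 20 μM) for about 25 min in PBS. Iodide injection (100 mM final) quenched YFP (ex 500/em 535 nm). The initial dF/dt gave activity, fitted for EC50 and for Emax relative to a reference hit.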

[1] = mean ± SD (n = 3–6), n.a.: not active (up to 20 μM)

Chain of F508del-CFTR (P13569 with tags, fused parts or gaps DEL508-508): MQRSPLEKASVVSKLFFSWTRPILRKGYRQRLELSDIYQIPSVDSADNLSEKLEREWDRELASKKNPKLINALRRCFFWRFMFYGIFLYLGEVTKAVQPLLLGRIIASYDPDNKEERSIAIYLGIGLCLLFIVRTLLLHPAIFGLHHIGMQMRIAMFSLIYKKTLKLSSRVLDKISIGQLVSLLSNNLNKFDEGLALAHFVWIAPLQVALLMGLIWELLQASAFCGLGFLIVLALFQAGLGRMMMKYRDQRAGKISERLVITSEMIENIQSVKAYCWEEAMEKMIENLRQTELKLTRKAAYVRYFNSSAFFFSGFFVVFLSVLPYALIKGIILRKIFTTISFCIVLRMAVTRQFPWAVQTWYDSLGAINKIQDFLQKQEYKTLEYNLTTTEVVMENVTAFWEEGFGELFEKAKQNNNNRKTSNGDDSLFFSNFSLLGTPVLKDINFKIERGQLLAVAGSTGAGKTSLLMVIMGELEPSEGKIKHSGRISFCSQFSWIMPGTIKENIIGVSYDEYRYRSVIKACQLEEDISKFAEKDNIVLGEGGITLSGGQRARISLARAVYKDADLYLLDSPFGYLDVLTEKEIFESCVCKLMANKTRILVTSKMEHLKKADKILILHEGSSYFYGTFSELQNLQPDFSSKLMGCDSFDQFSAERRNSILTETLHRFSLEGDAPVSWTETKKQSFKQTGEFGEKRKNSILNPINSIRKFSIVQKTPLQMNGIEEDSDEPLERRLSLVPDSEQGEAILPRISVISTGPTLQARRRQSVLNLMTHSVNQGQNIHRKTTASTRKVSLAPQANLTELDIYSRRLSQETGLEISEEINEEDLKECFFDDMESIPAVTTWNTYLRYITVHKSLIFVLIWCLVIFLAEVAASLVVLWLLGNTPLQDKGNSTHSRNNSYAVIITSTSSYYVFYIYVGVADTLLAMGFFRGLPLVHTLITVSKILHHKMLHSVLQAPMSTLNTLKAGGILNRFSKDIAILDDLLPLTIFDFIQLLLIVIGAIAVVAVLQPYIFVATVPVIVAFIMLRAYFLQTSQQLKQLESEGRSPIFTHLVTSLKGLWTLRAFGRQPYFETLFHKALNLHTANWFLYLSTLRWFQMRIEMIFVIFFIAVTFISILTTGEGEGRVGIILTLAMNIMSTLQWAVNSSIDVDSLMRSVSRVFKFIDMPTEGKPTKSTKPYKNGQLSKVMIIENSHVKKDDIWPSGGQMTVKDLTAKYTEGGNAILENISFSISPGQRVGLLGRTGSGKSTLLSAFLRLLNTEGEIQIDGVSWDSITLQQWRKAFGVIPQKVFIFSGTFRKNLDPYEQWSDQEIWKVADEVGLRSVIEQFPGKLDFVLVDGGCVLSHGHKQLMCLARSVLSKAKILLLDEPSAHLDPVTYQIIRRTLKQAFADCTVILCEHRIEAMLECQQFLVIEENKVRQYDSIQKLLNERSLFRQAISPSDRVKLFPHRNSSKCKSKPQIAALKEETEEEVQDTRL

| Compound | HepG2 (% survival) (HepG2 cells) | EC50 (F508del-CFTR; [1]) | Emax (FRT F508del-CFTR) (F508del-CFTR; normalized for the activity of analogue 3, mean ± SD (n = 3–6), n.a.: not active (up to 20 μM)) | Emax (F508del-CFTR) | activity on F508del-CFTR FRT cells (in words) (F508del-CFTR) | activity compared to VX-770 (F508del-CFTR; tested at 10 and 1 nM, Figure 6A) | fold increase in potency compared to hit 3 (F508del-CFTR; EC50, F508del-CFTR FRT cells) |
| --- | --- | --- | --- | --- | --- | --- | --- |
| O=C(c1cc(C(F)(F)F)[nH]n1)N1CCc2[nH]c3c(F)cccc3c2C1 [Compound 20, (6-Fluoro-1,3,4,5-tetrahydro-2H-pyrido[4,3-b]indol-2-yl)-(5-(trifluoromethyl)-1H-pyrazol-3-yl)methanone] | >80% | 0.096 ± 0.021 µM | 0.96 ± 0.06 | 0.96 ± 0.06 |  |  |  |
| COc1cc(F)c2[nH]c3c(c2c1)CN(C(=O)c1cc(C(F)(F)F)[nH]n1)CC3 [Compound 25, (6-Fluoro-8-methoxy-1,3,4,5-tetrahydro-2H-pyrido[4,3-b]indol-2-yl)-(5-(trifluoromethyl)-1H-pyrazol-3-yl)methanone] | >80% | 0.13 ± 0.06 µM |  | 1.15 ± 0.13 |  |  |  |
| Cc1ccc(F)c2[nH]c3c(c12)CN(C(=O)c1cc(C(F)(F)F)[nH]n1)[C@H](C)C3 [Compound 39, (R)-(6-Fluoro-3,9-dimethyl-1,3,4,5-tetrahydro-2H-pyrido[4,3-b]indol-2-yl)-(5-(trifluoromethyl)-1H-pyrazol-3-yl)methanone] | >80% | 0.017 ± 0.007 µM |  | 1.30 ± 0.12 | the most potent analogue | slightly lower activity than VX-770 |  |
| Cc1ccc(F)c2[nH]c3c(c12)CN(C(=O)c1cc(C(F)(F)F)[nH]n1)CC3 [Compound 30, (6-Fluoro-9-methyl-1,3,4,5-tetrahydro-2H-pyrido[4,3-b]indol-2-yl)-(5-(trifluoromethyl)-1H-pyrazol-3-yl)methanone] | >80% | 0.06 ± 0.03 µM |  | 1.00 ± 0.09 |  |  | more than 6 fold |
| COc1ccc2[nH]c3c(c2c1)CN(C(=O)c1cc(C(F)(F)F)[nH]n1)CC3 [Compound 3, (8-Methoxy-1,3,4,5-tetrahydropyrido[4,3-b]indol-2-yl)-[5-(trifluoromethyl)-1H-pyrazol-3-yl]methanone] | >80% | 0.35 ± 0.13 µM |  | 1 ± 0.04 |  |  |  |
| O=C(c1cc(C(F)(F)F)[nH]n1)N1CCc2[nH]c3c(F)ccc(F)c3c2C1 [Compound 29, (6,9-Difluoro-1,3,4,5-tetrahydro-2H-pyrido[4,3-b]indol-2-yl)-(5-(trifluoromethyl)-1H-pyrazol-3-yl)methanone] | >80% | 0.15 ± 0.08 µM |  | 1.19 ± 0.15 |  |  |  |
